Data published in PubChem BioAssay AID1745844 (Carcinogenic Potency Database (CPDB), 2022).
The source made the active and inactive calls. The rule behind the calls is not given here.

Tested on: rodent lifetime carcinogenesis bioassay, tumor incidence TD50
Experiment: chronic cancer bioassays in animals – CPDB, compiled studies (AID 1745844)

`NC(=O)c1ccccc1C(N)=O` was tested, and the carcinogen call (mouse, strain B6C3F1, females, in feed, site: any site (literature study), lesion: several types, types named in the paper, dosed 103 weeks, study length 103 weeks) was “negative (inactive)”, the TD50 (mouse, strain B6C3F1, males, in feed, site: any site (literature study), lesion: several types, types named in the paper, dosed 105 weeks, study length 105 weeks) was 1.1e+06 mg/kg/day (inactive) and the TD50 (mouse, strain B6C3F1, males, in feed, site: lung, lesion: alveolar/bronchiolar adenoma + alveolar/bronchiolar carcinoma, dosed 105 weeks, study length 105 weeks) was 35800 mg/kg/day. The TD50 (rat, strain Fischer 344, females, in feed, site: any site (literature study), lesion: several types, types named in the paper, dosed 106 weeks, study length 106 weeks) was 722 mg/kg/day (inactive), the TD50 (rat, strain Fischer 344, females, in feed, site: liver, lesion: hepatocellular adenoma + hepatocellular carcinoma + neoplastic nodule, dosed 106 weeks, study length 106 weeks) was 5390 mg/kg/day and the carcinogen call (rat, strain Fischer 344, males, in feed, site: any site (literature study), lesion: several types, types named in the paper, dosed 106 weeks, study length 106 weeks) was “negative (inactive)”. For the same compound, the TD50 (rat, strain Fischer 344, males, in feed, site: liver, lesion: hepatocellular adenoma + hepatocellular carcinoma + neoplastic nodule, dosed 106 weeks, study length 106 weeks) was 16600 mg/kg/day.
In the case of `CCN(CC)CCOc1ccc(C(O)(Cc2ccc(OC)cc2)c2ccccc2)cc1` (centres undefined), the carcinogen call (rat, strain Not specified, females, by gavage, site: mammary tissue, wider than the gland, lesion: one or several types, types not named, dosed 52 weeks, study length 52 weeks) is reported as “negative (inactive)”.
For `CC=NN(C)C=O`, the TD50 (mouse, strain Swiss albino, females, by gavage, site: clitoral gland, lesion: several types, types named in the paper, dosed 52 weeks, study length 109 weeks) was 38.2 mg/kg/day, the TD50 (mouse, strain Swiss albino, females, by gavage, site: clitoral gland, lesion: squamous-cell carcinoma, dosed 52 weeks, study length 109 weeks) was 46.4 mg/kg/day and the TD50 (mouse, strain Swiss albino, females, by gavage, site: forestomach, lesion: several types, types named in the paper, dosed 52 weeks, study length 109 weeks) was 28 mg/kg/day. For the same compound, the TD50 (mouse, strain Swiss albino, females, by gavage, site: forestomach, lesion: squamous-cell papilloma, dosed 52 weeks, study length 109 weeks) was 32.4 mg/kg/day, the TD50 (mouse, strain Swiss albino, females, by gavage, site: liver, lesion: hepatoma, dosed 52 weeks, study length 109 weeks) was 28 mg/kg/day (inactive) and the TD50 (mouse, strain Swiss albino, females, by gavage, site: lung, lesion: adenocarcinoma, dosed 52 weeks, study length 109 weeks) was 19.6 mg/kg/day. For the same compound, the TD50 (mouse, strain Swiss albino, females, by gavage, site: lung, lesion: adenoma, dosed 52 weeks, study length 109 weeks) was 7.37 mg/kg/day, the TD50 (mouse, strain Swiss albino, females, by gavage, site: lung, lesion: several types, types named in the paper, dosed 52 weeks, study length 109 weeks) was 5.66 mg/kg/day and the TD50 (mouse, strain Swiss albino, males, by gavage, site: liver, lesion: hepatoma, dosed 52 weeks, study length 79 weeks) was 11 mg/kg/day (inactive). For the same compound, the TD50 (mouse, strain Swiss albino, males, by gavage, site: lung, lesion: adenoma, dosed 52 weeks, study length 79 weeks) was 13.7 mg/kg/day, the TD50 (mouse, strain Swiss albino, males, by gavage, site: lung, lesion: several types, types named in the paper, dosed 52 weeks, study length 79 weeks) was 14.4 mg/kg/day and the TD50 (mouse, strain Swiss albino, males, by gavage, site: preputial gland, lesion: fibrosarcoma, dosed 52 weeks, study length 79 weeks) was 21.3 mg/kg/day. For the same compound, the TD50 (mouse, strain Swiss albino, males, by gavage, site: preputial gland, lesion: several types, types named in the paper, dosed 52 weeks, study length 79 weeks) was 1.61 mg/kg/day and the TD50 (mouse, strain Swiss albino, males, by gavage, site: preputial gland, lesion: squamous-cell carcinoma, dosed 52 weeks, study length 79 weeks) was 2.17 mg/kg/day.
`S=C=NCCCCCCc1ccccc1` was tested, and the carcinogen call (rat, strain Fischer 344, males, in feed, site: colon, lesion: one or several types, types not named, dosed 55 weeks, study length 55 weeks) was “negative (inactive)”, the carcinogen call (rat, strain Fischer 344, males, in feed, site: liver, lesion: hepatocellular adenoma, dosed 112 weeks, study length 112 weeks) was “negative (inactive)” and the carcinogen call (rat, strain Fischer 344, males, in feed, site: liver, lesion: hepatocellular carcinoma, dosed 112 weeks, study length 112 weeks) was “negative (inactive)”. The carcinogen call (rat, strain Fischer 344, males, in feed, site: pancreas, exocrine, lesion: acinar-cell adenoma, dosed 112 weeks, study length 112 weeks) was “negative (inactive)” and the carcinogen call (rat, strain Fischer 344, males, in feed, site: pancreatic islets, lesion: islet-cell adenoma, dosed 112 weeks, study length 112 weeks) was “negative (inactive)”.
`CN(CCCC(=O)O)N=O` was tested, and the TD50 (rat, strain F344/DuCrj, males, in drinking water, site: urinary bladder/ureter, lesion: several types, types named in the paper, dosed 40 weeks, study length 78 weeks) was 0.982 mg/kg/day and the TD50 (rat, strain F344/DuCrj, males, in drinking water, site: urinary bladder/ureter, lesion: transitional-cell carcinoma, dosed 40 weeks, study length 78 weeks) was 4.23 mg/kg/day.
`S=[Se]` was tested, and the TD50 (mouse, strain B6C3F1, females, by gavage, site: any site (literature study), lesion: several types, types named in the paper, dosed 103 weeks, study length 104 weeks) was 69.7 mg/kg/day, the TD50 (mouse, strain B6C3F1, females, by gavage, site: liver + lung, lesion: hepatocellular adenoma + hepatocellular carcinoma + alveolar/bronchiolar adenoma + alveolar/bronchiolar carcinoma, dosed 103 weeks, study length 104 weeks) was 46.8 mg/kg/day and the TD50 (mouse, strain B6C3F1, females, by gavage, site: liver, lesion: hepatocellular adenoma + hepatocellular carcinoma + neoplastic nodule, dosed 103 weeks, study length 104 weeks) was 69.3 mg/kg/day. It also gave a TD50 (mouse, strain B6C3F1, females, by gavage, site: liver, lesion: hepatocellular adenoma + hepatocellular carcinoma, dosed 103 weeks, study length 104 weeks) of 69.3 mg/kg/day, a TD50 (mouse, strain B6C3F1, females, by gavage, site: liver, lesion: hepatocellular carcinoma, dosed 103 weeks, study length 104 weeks) of 85.2 mg/kg/day and a TD50 (mouse, strain B6C3F1, females, by gavage, site: lung, lesion: alveolar/bronchiolar adenoma + alveolar/bronchiolar carcinoma, dosed 103 weeks, study length 104 weeks) of 137 mg/kg/day. For the same compound, the TD50 (mouse, strain B6C3F1, females, by gavage, site: lung, lesion: alveolar/bronchiolar carcinoma, dosed 103 weeks, study length 104 weeks) was 433 mg/kg/day, the TD50 (mouse, strain B6C3F1, males, by gavage, site: any site (literature study), lesion: several types, types named in the paper, dosed 103 weeks, study length 104 weeks) was 735 mg/kg/day (inactive) and the TD50 (mouse, strain B6C3F1, males, by gavage, site: liver, lesion: hepatocellular adenoma + hepatocellular carcinoma + neoplastic nodule, dosed 103 weeks, study length 104 weeks) was 202 mg/kg/day. It also gave a TD50 (mouse, strain B6C3F1, males, by gavage, site: lung, lesion: alveolar/bronchiolar adenoma + alveolar/bronchiolar carcinoma, dosed 103 weeks, study length 104 weeks) of 183 mg/kg/day, a TD50 (rat, strain Fischer 344, females, by gavage, site: any site (literature study), lesion: several types, types named in the paper, dosed 103 weeks, study length 104 weeks) of 19.3 mg/kg/day and a TD50 (rat, strain Fischer 344, females, by gavage, site: liver, lesion: hepatocellular adenoma + hepatocellular carcinoma + neoplastic nodule, dosed 103 weeks, study length 104 weeks) of 6.14 mg/kg/day. It also gave a TD50 (rat, strain Fischer 344, females, by gavage, site: liver, lesion: hepatocellular carcinoma + neoplastic nodule, dosed 103 weeks, study length 104 weeks) of 6.14 mg/kg/day, a TD50 (rat, strain Fischer 344, females, by gavage, site: liver, lesion: hepatocellular carcinoma, dosed 103 weeks, study length 104 weeks) of 13.2 mg/kg/day and a TD50 (rat, strain Fischer 344, males, by gavage, site: any site (literature study), lesion: several types, types named in the paper, dosed 103 weeks, study length 104 weeks) of 25 mg/kg/day. It also gave a TD50 (rat, strain Fischer 344, males, by gavage, site: liver, lesion: hepatocellular adenoma + hepatocellular carcinoma + neoplastic nodule, dosed 103 weeks, study length 104 weeks) of 11.5 mg/kg/day, a TD50 (rat, strain Fischer 344, males, by gavage, site: liver, lesion: hepatocellular carcinoma + neoplastic nodule, dosed 103 weeks, study length 104 weeks) of 11.5 mg/kg/day and a TD50 (rat, strain Fischer 344, males, by gavage, site: liver, lesion: hepatocellular carcinoma, dosed 103 weeks, study length 104 weeks) of 21 mg/kg/day.
For `CCN(CC)C(C)=O`, the TD50 (rat, strain Wistar, males, by gavage, site: any site (literature study), lesion: several types, types named in the paper, dosed 73 weeks, study length 73 weeks) was 11.8 mg/kg/day and the TD50 (rat, strain Wistar, males, by gavage, site: kidney, lesion: papillary transitional-cell carcinoma, dosed 73 weeks, study length 73 weeks) was 8.85 mg/kg/day.
